Data as given in publication PMC3400037, “Application of a single-objective, hybrid genetic algorithm approach to pharmacokinetic model building” (Journal of Pharmacokinetics and Pharmacodynamics, 2012).
Read-outs that look alike come from different tables or passages of the source.

Assays:
[1] = human, in vivo
Source text: (§1) Individuals who received oral olanzapine [14], perphaenazine [15], risperidone [16], or ziprasidone [17] were patients treated between January 2001 and December 2004 as part of the Clinical Antipsychotic Trials of Intervention Effectiveness (CATIE)—a multisite, US study of randomized, double-blind, medication comparative-effectiveness trial—in the treatment of Alzheimer’s (CATIE-AD) and schizophrenia (CATIE-SZ). […] Individuals who received intravenous citalopram were part of a cross sectional study of healthy volunteers participating in Pittsburgh’s Adult and Human Behavior Project; these individuals were between the ages of 30 and 55 years and not taking medications for hypertension, lipid disorders, or diabetes [22]. Individuals who received intravenous DMAG were cancer patients either at Pittsburgh’s Cancer Institute or at Memorial Sloan-Kettering participating in a phase II study.
(§2) The SOHGA operates on a set of candidate models in which each candidate specifies covariates included the in model, their functional forms, the structure of the inter-individual and residual variability, and the initial pharmacokinetic model parameter estimates [3]. Special-use software in which the SOHGA, coded and run in Microsoft Visual Studio and Compaq Digital Fortran, creates NONMEM control files to fit parameters and calculate the fitness of candidate models using NONMEM VI, Level 1.0 or NONMEM VII, version 7.2 using either first-order (risperidone only) or first-order conditional estimation with interaction using Xpose [23].
(§3) The SOHGA retained a population of 200–400 candidate models for 30–50 generations. A total of 0.7 crossover events were expected per set of parents. Candidate models for crossover were randomly selected based on scaled fitness function values; linear regression was performed using all fitness functions within two standard deviations of the mean, the fitness of the regression values were scaled to between 0.2 and 4, and outlying values were assigned one of these extreme values. This scaling of the fitness function improves convergence by not permitting outliers to dominate the selection process. The mutation rate was 0.01 mutations per bit. The candidate model with best fitness function was retained to the next generation, a technique known as elitism. Niche evaluation (where a niches differ by <4 bits) was performed. In niche evaluation, a penalty is applied to models that are similar to other models (differ by 4 or fewer bits). This prevents early convergence, maintaining diversity in the population. Four niches were used, insuring that at least four regions of the search space were explored in each phase of the search. A simple downhill search was performed every five generations. In the downhill search, each bit of the best model in each niche in reversed (0 to 1, 1 to 0) and the resulting models run. For example, if the bit string if of length 40, the downhill search will generate 40 new models for each niche that each differ by a single bit. If any of the resulting models are better than the current best model for that niche, the process is repeated with that model, until no further improvement is seen. Finally, timeout conditions were set where NONMEM timed out (terminated without completion failing convergence) after up to 600 min for a model and a generation timed out after up to 6,000 min although the exact timeout conditions varied by compound.

[2] = final stepwise model, oral, cited from earlier work; for Absorption rate constant (1/h)—TVKA: fixed based on literature, not estimated; for Clearance (L/h)—TVCL / Volume of distribution (L)—TVV: one compartment with absorption; for Volume of distribution (L)—TVV: (relative standard error; perphenazine: 95 % CI from bootstrapping)
[3] = Population pharmacokinetic model of clinical plasma concentration data, manual stepwise forward inclusion/backward elimination (NONMEM); assay type: in vivo, human; settings: final stepwise model, IV
Experimental: Manual stepwise model results were taken from the literature or were generated from unpublished data (DMAG) or data reported elsewhere in the literature. These models were determined using similar methods. Briefly, for each compound, a covariate free model was used to select the model compartment structure with the combination of inter-individual and residual variability structures resulting in the lowest objective function value calculated by NONMEM (twice the negative log likelihood plus a fixed constant offset) and a reasonable distribution of residuals as the base model.
Univariate evaluations of covariates were then performed. […] The covariate and its function form that (1) yielded the lowest objective function conditional on (2) improved the objective function value by at least 3.84 (citalopram, DMAG, and [14, 15, 17, 21]) or 7.88 [16] points compared to the base model (which corresponds to Chi-squared values of p = 0.05 and p = 0.005 with one degree of freedom, respectively) and (3) in which there appeared to be a graphical relationship between the deviation in an individual predicted value and the covariate value across individual predicted values was included in the model. The remaining covariates were then included individually in the updated model, the inclusion criteria evaluated, and the model sequentially updated with additional covariates until no further covariates met the model inclusion criteria.
Finally, individual covariates were removed from the final model and the change in the objective function was calculated. Covariates were excluded from the final model if, when the covariate was removed, the objective function value increased by less than 3.84 (citalopram, DMAG, [14, 15, 21]), 6.63 [17] (a Chi-squared value of p = 0.01 with one degree of freedom), or 7.88 [16]. Although the models were derived using different versions of NONMEM, the final models reported in the literature were re-run in NONMEM VI, Level 1.0 using Fortran G77 and NONMEM VII, version 7.2 with Intel Fortran to confirm that the results were independent of the NONMEM version.
All continuous covariates were centered at zero.

[4] = Population pharmacokinetic model of clinical plasma concentration data, single-objective hybrid genetic algorithm (SOHGA) coupled to NONMEM; settings: best SOHGA candidate model
Source text: as §1, §2, §3

[5] = clinical; settings: human, in vivo, iv
Source text: as §1, §2, §3

[6] = 3 component mixture for clearance, FO, (relative standard error)
[7] = 3 component mixture for clearance
[8] = three compartment, (relative standard error)
[9] = IV, three compartment, (relative standard error)
[10] = CYP2C19 genotype, (relative standard error)
[11] = oral, one compartment with absorption, (relative standard error)

Cc1cc2c(s1)Nc1ccccc1N=C2N1CCN(C)CC1 [Olanzapine, olanzapine]
Absorption rate constant (1/h)—TVKA ([1]; po): 0.773 (70.4 %) 1/h
Clearance (L/h)—TVCL ([1]; po): 21.1 (15.5 %) L/h
Inter-individual variability—ωCL of ηCL ([1]; po): 64.7 % (17.2 %)
Volume of distribution (L)—TVV ([1]; po): 4,130 (48.9 %) L
Inter-individual variability—ωCL of ηCL [2]: 68%
Inter-individual variability—ωV of ηV [2]: 86%
Absorption rate constant (1/h)—TVKA [2]: Fixed at 0.5 1/h
Clearance (L/h)—TVCL ([2]; (relative standard error)): 16.1 (7.3 %) L/h
Volume of distribution (L)—TVV [2]: 2,150 (26.0 %) L

OCCN1CCN(CCCN2c3ccccc3Sc3ccc(Cl)cc32)CC1 [Perphenazine, perphenazine]
Absorption rate constant (1/h)—TVKA ([1]; po): 0.859 (80.7 %) 1/h
Clearance (L/h)—TVCL ([1]; po): 354 (12.3 %) L/h
Inter-individual variability—ωCL of ηCL ([1]; po): 78.8 % (11.4 %)
Volume of distribution (L)—TVV ([1]; po): 1.10x10^7 (172 %) L
Clearance (L/h)—TVCL ([2]; (relative standard error)): 483 L/h
Volume of distribution (L)—TVV [2]: 18,200 (13,865 - 65,795) L

Cc1nc2n(c(=O)c1CCN1CCC(c3noc4cc(F)ccc34)CC1)CCCC2 [Risperidone, risperidone]
Absorption rate constant (1/h)—TVKA ([1]; po): 0.184.(21.1 %) 1/h
Central volume—TVV1 ([1]; po): 96.6 (31.2 %)
Clearance (L/h)—TVCL, Extensive metabolizer ([1]; po): 122 (11.5 %) L/h
Clearance (L/h)—TVCL, Intermediate metabolizer ([1]; po): 34.9 (8.9 %) L/h
Clearance (L/h)—TVCL, Poor metabolizer ([1]; po): 12.4 (8.5 %) L/h
Inter-comp clearance—TVQ ([1]; po): 27.1 (29.9 %)
Inter-individual variability—η^(V1) ([1]; po): 478 % (46.4 %)
Inter-individual variability—ωCL of ηCL ([1]; po): 7.3 % (32.2 %)
Percent of subjects who were extensive metabolizers ([1]; po): 41.4 % (8.6 %)
Percent of subjects who were poor metabolizers ([1]; po): 22.4 % (4.4 %)
Peripheral volume—TVV2 ([1]; po): 1.31x10^10 (1,000 %)
Clearance (L/h)—TVCL, Extensive metabolizer [2, 6]: 65.4 (9.9 %) L/h
Clearance (L/h)—TVCL, Poor metabolizer [2, 6]: 12.9 (6.5 %) L/h
Inter-individual variability—ωCL of ηCL, Extensive metabolizer [2, 7]: 56.6 % (16.8 %)
Inter-individual variability—ωCL of ηCL, Poor metabolizer [2, 7]: 95.9 % (39.5 %)
Percent of subjects who were extensive metabolizers [2, 7]: 52.4 % (6.2 %)
Percent of subjects who were poor metabolizers [2, 7]: 41.2 % (8.1 %)
Inter-individual variability—ωKA of ηKA [2]: 53.7 % (89.3 %)
Inter-individual variability—ωV of ηV [2]: 36.1 % (24.4 %)
Absorption rate constant (1/h)—TVKA [2]: Fixed at 1.7 1/h
Volume of distribution (L)—TVV [2]: 444 (17.8 %) L

CO[C@H]1/C=C\C=C(/C)C(=O)NC2=CC(=O)C(NCCN(C)C)=C(C[C@@H](C)C[C@H](OC)[C@H](O)[C@@H](C)/C=C(\C)[C@@H]1OC(N)=O)C2=O [DMAG, 17-(dimethylaminoethylamio)-17-demethoxygeldanamycin]
Inter-occasion variability (first compartment volume) [3]: 59.7 % (31.2 %)
Inter-occasion variability—ωQ1 of ηOCC,Q1 [3]: 32.6 % (37.2 %)
Inter-patient variability—ωQ2 of ηQ2 [3]: 75.8 % (32.0 %)
Inter-patient variability—ωV3 of ηV3 [3]: 67.5 % (37.3 %)
Inter-individual variability—ωV1 of ηV1 ([3]; standard deviation ω): 33.0 % (111.9 %)
Inter-individual variability—ωV2 of ηV2 ([3]; standard deviation ω): 50.7 % (23.7 %)
Inter-patient variability—ωCL of ηCL ([3]; standard deviation ω): 53.8 % (22.9 %)
First compartment volume (L)—TVV1 [3, 8]: 27.4 (11.7 %) L
Second compartment volume (L)—TVV2 [3, 8]: 66.4 (10.1 %) L
Third compartment volume (L)—TVV3 [3, 8]: 142 (13.5 %) L
Clearance (L/h)—TVCL ([3]; typical value (relative standard error)): 8.4 (11.2 %) L/h
Inter-individual variability—ωV1 of ηV1 ([4]; IV): 39.7 % (24.5 %)
Inter-individual variability—ωV2 of ηV2 ([4]; IV): 42.3 % (24.8 %)
Inter-occasion variability—ωCL of ηOCC,CL ([4]; IV): 8.3 % (38.6 %)
Inter-occasion variability—ωQ1 of ηOCC,Q1 ([4]; IV): 14.0 % (32.7 %)
Inter-patient variability—ωCL of ηCL ([4]; IV): 22.1 % (29.1 %)
First compartment volume (L)—TVV1 [4, 9]: 28.1 (12.9 %) L
Second compartment volume (L)—TVV2 [4, 9]: 77.9 (11.4 %) L
Third compartment volume (L)—TVV3 [4, 9]: 86.4 (8.5 %) L
Clearance (L/h)—TVCL ([4]; IV, typical value (relative standard error)): 9.28 (7.9 %) L/h

CN(C)CCC[C@@]1(c2ccc(F)cc2)OCc2cc(C#N)ccc21 [Escitalopram, escitalopram]
Absorption rate constant (1/h)—TVKA ([1]; po): 0.594 (23.1 %) 1/h
Clearance (L/h)—TVCL ([1]; po): 25.5 (5.3 %) L/h
Inter-individual variability—ωV of ηV ([1]; po): 59.4 % (32.6 %)
Volume of distribution (L)—TVV ([1]; po): 874 (11.8 %) L
Clearance (L/h)—TVCL, Missing metabolizer information ([2]; (relative standard error)): 21.5 (7.80 %) L/h
Clearance (L/h)—TVCL, Extensive metabolizer [2, 10]: 26 (7.20 %) L/h
Clearance (L/h)—TVCL, Poor metabolizer [2, 10]: 19.8 (8.50 %) L/h
Inter-individual variability—ωV of ηV [2]: 62.0 % (40.3 %)
Volume of distribution (L)—TVV [2]: 947 (10.2 %) L

CN(C)CCCC1(c2ccc(F)cc2)OCc2cc(C#N)ccc21 (stereo not shown) [Citalopram, citalopram]
Inter-individual variability—ωQ of ηQ ([3]; standard deviation ω): 48.5 % (NA)
Inter-individual variability—ωV1 of ηV1 ([3]; standard deviation ω): 12.2 % (NA)
Inter-individual variability—ωV2 of ηV2 ([3]; standard deviation ω): 22.6 % (NA)
Central volume (L)—TVV1 ([3]; two compartment): 2.87 (NA) L
Peripheral volume (L)—TVV2 ([3]; two compartment): 1,510 (NA) L
clearance ([3]; human, plasma, 0.33 mg/kg lean body mass, typical value (relative standard error), read-out: Clearance (L/h)—TVCL (converted)): 7.11 L/h
Central volume (L)—TVV1 ([1]; iv): 82.1 (17.7 %) L
Inter-comp clearance (L/h)—TVQ ([1]; iv): 6.26 (19.0 %) L/h
Inter-individual variability—ωQ of ηQ ([1]; iv): 35.5 % (19.0 %)
Inter-individual variability—ωV1 of ηV1 ([1]; iv): 46.2 % (15.5 %)
Inter-individual variability—ωV2 of ηV2 ([1]; iv): 25.4 % (12.5 %)
Peripheral volume (L)—TVV2 ([1]; iv): 205 (12.6 %) L
clearance [5]: 20.3 mL/min

O=C1Cc2cc(CCN3CCN(c4nsc5ccccc45)CC3)c(Cl)cc2N1 [Ziprasidone, ziprasidone]
Absorption rate constant (1/h)—TVKA ([1]; po): 0.424 (5.8 %) 1/h
Inter-individual variability—ωCL of ηCL ([1]; po): 69.0 % (21.4 %)
Inter-individual variability—ωV of ηV ([1]; po): 114 % (16.0 %)
Inter-individual variability—ωCL of ηCL [2]: 64.8 % (25 %)
Inter-individual variability—ωV of ηV [2]: 104.4 % (27 %)
Absorption rate constant (1/h)—TVKA [2]: Fixed at 0.5 1/h
Clearance (L/h)—TVCL ([2]; (relative standard error)): 122 (9 %) L/h
Volume of distribution (L)—TVV [2]: 1,060 (19 %) L
Clearance (L/h)—TVCL [4, 11]: 126 (9.0 %) L/h
Volume of distribution (L)—TVV [4, 11]: 1,030 (12.4 %) L
